{"source": "patent US4942154A", "about": "“Steroidal glycolipids as host resistance stimulators against viral infection” (priority 1987, dated 1990)", "key": {"[1]": {"tested_on": "Pseudomonas aeruginosa", "assay": "Pseudomonas aeruginosa in vivo protection study in cyclophosphamide-treated mice", "design": "species or system CF1 female mice", "conditions": "for LD50 Actual: PA, CY +", "method": "(§1) Groups of 15-20 CF1 female mice (Charles River Breeding, Cambridge, Mass.) weighing 22-28 gm were injected intraperitoneally (i.p.) with cyclophosphamide (Cytoxan; CY) at 250 mg per kg body weight. One to two hours later they were typically injected again with the test material by the route specified. Four days later, the mice were divided into groups of five, each of which were injected i.p. with a different dilution of a suspension of Pseudomonas aeruginosa (Immunotype 1). The number of survivors was determined periodically and an estimate was made of the number of CFU of Pseudomonas organisms necessary to cause 50% lethality by the cumulative method of L. J. Reed and H. Muench (Am. J. Hygiene 27 (1938) 493-497). A protective index (P.I.) was defined as the LD50 for the mice receiving cyclophosphamide and the test compound divided by the LD50 for the mice receiving cyclophosphamide alone. All control mice were injected with aqueous vehicle in the same route and schedule as the test animals.\n(§2) MATERIALS. All compounds for dosing were suspended in a sterile medium referred to as \"aqueous vehicle\" which contains 0.9% sodium chloride, 0.5% carboxymethyl cellulose, 0.4% Tween 80, and 0.9% benzyl alcohol unless otherwise stated. Test materials were evaluated via subcutaneous (s.c.), i.p., intramuscular (i.m.), orally (p.o.). and intravenous (i.v.) routes of administration. […]\n(§3) INFECTION OF ANIMALS. All bacteria were inoculated i.p. to induce infection in the in vivo experiments. Candida albicans, however, was administrated i.v. Bacteria cultures were harvested in the log phase, washed with phosphate buffered saline (PBS, and resuspended in PBS containing 10% glycerol for freezing at -70° C. in 1 ml aliquots. The number of […] (cfu's) was determined before and after freezing. Frozen cultures were routinely thawed and diluted in sterile PBS just prior to inoculation. Viable cell counts were routinely done on thawed cultures the day of challenge to determine the number of cfu's. Candida albicans was stored in distilled water at room temperature. Viable cell counts were determined the day of testing.\n(§4) The testing and results of 6-(5-cholesten-3β-yloxy)hexyl-1-thio-β-D-mannopyranoside (Example 2) against various organisms is shown in Table 2."}, "[2]": {"tested_on": "Mycobacterium aviumintracellulare", "conditions": "AIDS patients; cited from earlier work"}, "[3]": {"tested_on": "AIDS / AIDS-related complex (ARC)", "conditions": "human, in vivo; cited from earlier work"}, "[4]": {"conditions": "in vivo; cited from earlier work"}, "[5]": {"conditions": "cited from earlier work; for adverse effects, toxicity, tolerability: clinical"}, "[6]": {"tested_on": "HIV", "conditions": "cited from earlier work"}, "[7]": {"tested_on": "Staphylococcus aureus", "assay": "In vivo protection from Staphylococcus aureus infection in cyclophosphamide-treated mice", "design": "species or system CF1 female mice", "conditions": "SA, CY +", "method": "as §1\nMATERIALS. All compounds for dosing were suspended in a sterile medium referred to as \"aqueous vehicle\" which contains 0.9% sodium chloride, 0.5% carboxymethyl cellulose, 0.4% Tween 80, and 0.9% benzyl alcohol unless otherwise stated. Test materials were evaluated via subcutaneous (s.c.), i.p., intramuscular (i.m.), orally (p.o.). and intravenous (i.v.) routes of administration. The initial test dose was 40 mg per kg per mouse, with each active compound subsequently titrated below this level.\nas §3, §4"}, "[8]": {"tested_on": "Candida albicans", "assay": "In vivo protection from Candida albicans infection in cyclophosphamide-treated mice", "design": "species or system CF1 female mice", "conditions": "CA, CY +", "method": "as §1, §2\nas §3, with “All bacteria were inoculated i.p. to induce infection in the in vivo experiments.” left out, “testing. […]” for “testing.”"}, "[9]": {"tested_on": "Klebsiella pheumoniae", "assay": "In vivo protection from Klebsiella infection in cyclophosphamide-treated mice", "design": "species or system CF1 female mice", "conditions": "KP; CY +; 40 mg/kg", "method": "as §1, §2"}, "[10]": {"tested_on": "Herpes Simplex Virus-1 (HSV1)", "assay": "Antiviral experiment in mice infected IP with Herpes Simplex Virus-1", "format": "in vivo, ICR mice", "conditions": "for Average Day of Death, Pre Treatment: HSV1 day 5; for Average Day of Death, Post Treatment: HSV1 prior to treatment", "method": "An antiviral experiment was conducted to compare treatment with 6-(5-Cholesten-3β-yloxy)hexyl 1-thio-β-D-mannopyranoside (Example 2) in mice infected IP with Herpes Simplex Virus-1 (HSV1) immediately before (post treatment) or after 5 days of treatment (pretreatment).\nTen mice (ICR, 20 gm, mixed sexes) were pretreated by SC injection of a 0.1 mL suspension of test compound twice a day for 4 days. On day 5, the mice were injected IP with 0.5 mL solution of HSV1 (Schloser, 10-5). The post treatment group was infected with HSV1 prior to administration of test compound. Day of death from time of infection with HSV1 was recorded for each mouse and average day of death per treatment group was calculated."}, "[11]": {"tested_on": "HIV reverse transcriptase", "conditions": "cited from earlier work"}, "[12]": {"tested_on": "reverse transcriptase in several retroviruses", "conditions": "in vitro; cited from earlier work"}, "[13]": {"tested_on": "AIDS-related Kaposi's sarcoma", "conditions": "cited from earlier work"}}, "data": [{"compound": "6-(20S-Amino-pregn-5-en-3β-yloxy)hexyl 1-thio-β-D-mannopyranoside [Example 14]", "values": [{"measurement": "Protective Index (log)", "setting": "[1]; Table 3, Pseudomonas aeruginosa, cyclophosphamide-treated mice, dose not given", "value": 4.37, "unit": "log"}]}, {"compound": "CO[C@H]1/C=C/O[C@@]2(C)Oc3c(C)c(O)c4c(c3C2=O)C2=NC3(CCN(CC(C)C)CC3)NC2=C(NC(=O)/C(C)=C\\C=C\\[C@H](C)[C@H](O)[C@@H](C)[C@@H](O)[C@@H](C)[C@H](OC(C)=O)[C@@H]1C)C4=O", "note": "[Ansamycin, rifabutin]", "values": [{"measurement": "efficacy in opportunistic infection", "setting": "[2]", "value": "some efficacy"}]}, {"compound": "Cc1cn([C@H]2C[C@H](N=[N+]=[N-])[C@@H](CO)O2)c(=O)[nH]c1=O", "note": "[Azidothymidine, 3'-azido-3'-deoxythymidine]", "values": [{"measurement": "clinical effect in AIDS / ARC patients", "setting": "[3]", "value": "First drug to show promise in prolonging lives of patients with AIDS or AIDS-related complex (ARC)"}, {"measurement": "central nervous system penetration", "setting": "[4]", "value": "effectively penetrates central nervous system"}]}, {"compound": "CC(C)(N1CC1C#N)N1CC1C(N)=O", "note": "(stereo not shown) [Azimexon]", "values": [{"measurement": "clinical effect in AIDS / ARC patients", "setting": "[3]", "value": "improvements in symptoms and immune function in patients with ARC but not AIDS"}, {"measurement": "adverse effects, toxicity, tolerability", "setting": "[5]", "value": "only toxic effect was mild hemolysis"}]}, {"compound": "CC(C)(S)[C@@H](N)C(=O)O", "note": "[D-Penicillamine, 3-mercapto-D-valine]", "values": [{"measurement": "effect on HIV infectivity, growth or reproduction", "setting": "[6]", "value": "Inhibits HIV reproduction in humans"}, {"measurement": "clinical effect in AIDS / ARC patients", "setting": "[3]", "value": "suppressed the virus"}, {"measurement": "T cell levels", "setting": "[5]; 13 AIDS patients with perpetually swollen glands", "value": "temporarily depressed T cell levels"}]}, {"compound": "CC(C)CCC[C@@H](C)[C@H]1CC[C@H]2[C@@H]3CC=C4C[C@@H](OCCCCCCS[C@@H]5O[C@H](CO)[C@@H](O)[C@H](O)[C@@H]5O)CC[C@]4(C)[C@H]3CC[C@]12C", "note": "[Example 2, 6-(5-Cholesten-3β-yloxy)hexyl 1-thio-β-D-mannopyranoside]", "values": [{"measurement": "LD50 Actual", "setting": "[1]; 10 mg/kg", "value": "3.2 × 10^4 CFU"}, {"measurement": "LD50 Actual", "setting": "[1]; 20 mg/kg", "value": "3.2 × 10^5 CFU"}, {"measurement": "LD50 Actual", "setting": "[1]; 40 mg/kg", "value": "1.22 × 10^6 CFU"}, {"measurement": "LD50 Actual", "setting": "[1]; 80 mg/kg", "value": "2.59 × 10^6 CFU"}, {"measurement": "LD50 Actual", "setting": "[7]; 5 mg/kg", "value": "3.38 × 10^5 CFU"}, {"measurement": "LD50 Actual", "setting": "[7]; 10 mg/kg", "value": "1.04 × 10^6 CFU"}, {"measurement": "LD50 Actual", "setting": "[7]; 20 mg/kg", "value": "2.38 × 10^6 CFU"}, {"measurement": "LD50 Actual", "setting": "[7]; 40 mg/kg", "value": "1.58 × 10^7 CFU"}, {"measurement": "LD50 Actual", "setting": "[8]; 10 mg/kg", "value": "3.68 × 10^4 CFU"}, {"measurement": "LD50 Actual", "setting": "[8]; 20 mg/kg", "value": "5.2 × 10^4 CFU"}, {"measurement": "LD50 Actual", "setting": "[8]; 40 mg/kg", "value": "7.88 × 10^4 CFU"}, {"measurement": "LD50 Actual", "setting": "[9]", "value": "4.73 × 10^7 CFU"}, {"measurement": "P.I. (log)", "setting": "[9]", "value": 1.12, "unit": "log"}, {"measurement": "Average Day of Death, Pre Treatment", "setting": "[10]; 0.8 mg/kg SC twice a day for 4 days, P 0.797", "value": 8.6, "unit": "days"}, {"measurement": "Average Day of Death, Post Treatment", "setting": "[10]; 0.8 mg/kg SC twice a day", "value": 9.1, "unit": "days"}, {"measurement": "Average Day of Death, Pre Treatment", "setting": "[10]; 3.1 mg/kg SC twice a day for 4 days, P 0.348", "value": 7.1, "unit": "days"}, {"measurement": "Average Day of Death, Post Treatment", "setting": "[10]; 3.1 mg/kg SC twice a day", "value": 6.3, "unit": "days"}, {"measurement": "Average Day of Death, Pre Treatment", "setting": "[10]; 12.5 mg/kg SC twice a day for 4 days, P 0.725", "value": 8.0, "unit": "days"}, {"measurement": "Average Day of Death, Post Treatment", "setting": "[10]; 12.5 mg/kg SC twice a day", "value": 7.5, "unit": "days"}, {"measurement": "Average Day of Death, Pre Treatment", "setting": "[10]; 50 mg/kg SC twice a day for 4 days, P 0.003", "value": 11.0, "unit": "days"}, {"measurement": "Average Day of Death, Post Treatment", "setting": "[10]; 50 mg/kg SC twice a day", "value": 6.4, "unit": "days"}, {"measurement": "protection from fatal viral infection over placebo", "setting": "[10]; 50 mg/kg twice a day for four days, by day of death", "value": "statistically enhanced protection from fatal viral infection over placebo treated animals"}, {"measurement": "protection, pretreated over post treatment group", "setting": "[10]; pretreated mice versus post treatment group", "value": "statistically enhanced protection over the post treatment group"}]}, {"compound": "O=C(O)P(=O)(O)O", "note": "[Foscarnet, trisodium phosphonoformate]", "values": [{"measurement": "HIV reverse transcriptase inhibition", "setting": "[11]", "value": "Inhibits HIV reverse transcriptase activity in vitro at levels pharmacologically acceptable in vivo"}, {"measurement": "adverse effects, toxicity, tolerability", "setting": "[5]", "value": "serious side effects"}]}, {"compound": "CC(=O)Nc1ccc(C(=O)O)cc1.CC(=O)Nc1ccc(C(=O)O)cc1.CC(=O)Nc1ccc(C(=O)O)cc1.CC(O)CN(C)C.CC(O)CN(C)C.CC(O)CN(C)C.O=c1[nH]cnc2c1ncn2[C@@H]1O[C@H](CO)[C@@H](O)[C@H]1O", "note": "[Inosine pranobex, p-Acetamidobenzoic acid salt of (1-dimethylamino-2-propanol:inosinate complex 3:3:1 molar ratio)]", "values": [{"measurement": "clinical effect in AIDS / ARC patients", "setting": "[3]", "value": "improve immune function in ARC patients"}]}, {"compound": "NC(=O)c1ncn([C@@H]2O[C@H](CO)[C@@H](O)[C@H]2O)n1", "note": "[Ribavirin, 1-β-D-ribofuranosyl-1,2,4-triazole-3-carboxamide]", "values": [{"measurement": "clinical effect in AIDS / ARC patients", "setting": "[3]", "value": "inhibited viral replication and improved immune function in AIDS patients"}]}, {"compound": "Cc1ccc(C(=O)Nc2ccc(S(=O)(=O)O)c3cc(S(=O)(=O)O)cc(S(=O)(=O)O)c23)cc1NC(=O)c1cccc(NC(=O)Nc2cccc(C(=O)Nc3cc(C(=O)Nc4ccc(S(=O)(=O)O)c5cc(S(=O)(=O)O)cc(S(=O)(=O)O)c45)ccc3C)c2)c1", "note": "[Suramin]", "values": [{"measurement": "HIV reverse transcriptase inhibition", "setting": "[11]", "value": "Potent inhibitor of HIV reverse transcriptase"}, {"measurement": "clinical effect in AIDS / ARC patients", "setting": "[3]", "value": "little or no evidence of clinical improvement or immunologic recovery"}]}, {"compound": "ammonium 21-tungsto-9-antimoniate [HPA-23]", "values": [{"measurement": "reverse transcriptase inhibition in retroviruses", "setting": "[12]", "value": "Inhibits reverse transcriptase in several retroviruses in vitro"}, {"measurement": "effect on HIV infectivity, growth or reproduction", "setting": "[6]", "value": "some tendency to check the growth of HIV"}, {"measurement": "clinical effect in AIDS / ARC patients", "setting": "[3]", "value": "no therapeutic benefit has been documented in AIDS patients"}]}, {"compound": "α-Interferon", "values": [{"measurement": "effect on HIV infectivity, growth or reproduction", "setting": "[6]", "value": "Checks the growth of HIV in vitro"}, {"measurement": "tumor regression", "setting": "[13]", "value": "induced tumor regression in some AIDS-related Kaposi's sarcoma cases"}]}]}
